# In patent US20120003661A1, “METHODS AND DEVICES FOR THE SELECTIVE DETECTION OF MICROORGANISMS” (C3 JIAN, INC., priority 2010, published 2012):
# “Also recorded” adds a separate entry of the source.
# System: bacteria, fungi, and/or yeasts
# Type: binding
# Settings: microorganism(s) listed as target(s) of the targeting peptide; wrapped target lists given cell by cell
row,Substance,Target(s)
1,PF-016 (RKQYDDLSFNFLY),"S. epidermidis, E. faecalis, C. jeikeium"
2,PF-060 (HSSHL),"C. albicans hyphae; also recorded: E. coli, C. albicans, C. jeikeium"
3,1T-288 (RWVGGEPSADIYLSAKDTKT),"F. nucleatum, S. gordonii, S. salivarious,; also recorded: S. sanguinis"
4,1T-279 (FVLRTKHCFY),"A. naeslundii, F. nucleatum, P. gingivalis,; also recorded: S. gordonii, S. mitis,; also recorded: S. mutans, S. oralis, S. salivarious,; also recorded: S. sanguinis"
5,PF-075 (FVNSLIMKDLSDNDMRFKYEYYNREKDT),"M. luteus, E. coli, P. aeruginosa,; also recorded: MRSA, C. jeikeium"
6,PF-076 (LYQYELLSKEEYLKCTLIINQRRNEQK),"S. epidermidis, M. luteus, E. coli,; also recorded: P. aeruginosa, C. albicans,; also recorded: MRSA, S. pneumoniae, E. faecalis,; also recorded: C. jeikeium, C. jejuni"
7,PF-134 (GKAMKRQDCSAL),"S. epidermidis, C. jeikeium"
8,1T-253 (KTKESLTQQEKKFLKDYDRKSLHHFRDILTYCFILDKLTNK),"A. naeslundii, F. nucleatum, P. gingivalis,; also recorded: S. epidermidis, S. gordonii,; also recorded: S. mitis, S. mutans, S. oralis,; also recorded: S. salivarious, S. sanguinis"
9,1T-298 (ILNKKPKLPLWKLGKNYFRRFYVLPTFLA),"A. naeslundii, F. nucleatum, P. gingivalis,; also recorded: T. denticola, S. gordonii,; also recorded: S. mitis, S. mutans, S. oralis,; also recorded: S. salivarious, S. sanguinis"
10,PF-044 (KLKKYIHKPD),"S. epidermidis, M. luteus, MRSA,; also recorded: C. jeikeium"
11,PF-066 (IKGTVKAVDETTVVITVNGHGTELTFEKPAIKQVDPS),"M. luteus, E. coli, C. jeikeium"
12,PF-046 (LDFYLTKHLTLML),"E. coli, E. faecalis, C. jeikeium"
13,PF-022 (MINELKNKNSGIMNNYVVTKESKL),"M. luteus, P. mirabilis, E. coli, P. aeruginosa,; also recorded: C. albicans, MRSA,; also recorded: S. pneumoniae, E. faecalis, C. jeikeium,; also recorded: C. jejuni"
14,PF-071 (HCVIGNVVDIANLLKRRAVYRDIADVIKMR),"S. epidermidis, E. coli, P. aeruginosa,; also recorded: C. albicans, MRSA,; also recorded: S. pneumoniae, E. faecalis, C. jeikeium,; also recorded: C. jejuni"
15,1T-252 (MKKNLKRFYALVLGFIIGCLFVSILIFIGY),"F. nucleatum, S. sanguinis"
16,PF-155 (GRYGDDSKERQGRAQ),C. jeikeium
17,PF-027 (HNARKYLEFISQKIDGDKLTKEDSL),"M. luteus, MRSA, E. faecalis, C. jejuni"
18,PF-026 (SIHFIN),"S. epidermidis, M. luteus, P. mirabilis,; also recorded: C. albicans, MRSA, E. faecalis,; also recorded: C. jeikeium"
19,1T-16 (IDMR),yeast and hyphal forms
20,PF-005 (MESIFKIKLMNGICRSENMNMKKKNKGEKI),"S. epidermidis, E. coli, MRSA, S. pneumoniae,; also recorded: E. faecalis"
21,PF-101 (DPVPERQEQACACHRTAKPGK),S. mutans
22,PF-063 (IAAIIVLVLFQKGLLQIFNWILIQLQ),"S. epidermidis, M. luteus, E. coli,; also recorded: P. aeruginosa, MRSA, S. pneumoniae,; also recorded: E. faecalis, C. jeikeium,; also recorded: C. jejuni"
23,PF-147 (RRPRRRRSGHGQSASAA),"S. epidermidis, M. luteus, MRSA"
24,PF-040 (MIHLTKQNTMEALHFIKQFYDMFFILNFNV),"C. albicans hyphae; also recorded: S. epidermidis, M. luteus, P. mirabilis,; also recorded: E. coli, P. aeruginosa,; also recorded: C. albicans, MRSA, S. pneumoniae,; also recorded: E. faecalis, C. jeikeium,; also recorded: C. jejuni"
25,1T-294 (YDKIADGVFKIGKRGVL),T. denticola

# Same assay, conditions: microorganism(s) that the targeting peptide binds, as listed in Table 2
row,Substance,Target(s)
1,PF-792 (ALHASGIQAI),S. mutans
2,PF-C290 (GNVHPESDFHNLIQFIKTFLYFTIFFKYFL),"A. naeslundii, F. nucleatum, P. gingivalis,; also recorded: S. mutans, T. denticola"
3,PF-S023 (MAEDERRALKRRTNRGRTRTRKRITV),"S. epidermidis, MRSA"
4,PF-C057 (YFWWYWVQDCIPYKNNEVWLELSNNMK),"A. naeslundii, F. nucleatum, P. gingivalis,; also recorded: S. mutans"
5,PF-C281 (KKEKLLTAIRLQHRAEIRGYFTIFFLFFRI),"A. naeslundii, F. nucleatum, P. gingivalis,; also recorded: S. mutans, T. denticola"
6,PF-C052 (SRFRNGV),"A. naeslundii, F. nucleatum, S. mutans"
7,PF-S004 (VLLNIFRTLLEFFSPSNAPGAEDVPLPDTQA),"S. epidermidis, MRSA, C. jeikeium"
8,PF-U (TFFRLFNRSFTQALGK),S. mutans
9,PF-C143 (VVFGGGDRLV),"A. naeslundii, F. nucleatum, P. gingivalis,; also recorded: S. mutans, T. denticola"
10,PF-C063 (SHFRKGD),"A. naeslundii, F. nucleatum, S. mutans"

# Same assay, conditions: microorganism(s) the targeting peptide binds, as listed in Table 2
row,Substance,Target(s)
1,1T-108 (WGPLGPERPLW),"S. gordonii, S. mitis, S. mutans,; also recorded: S. oralis, S. salivarious, S. sanguinis"
2,1T-203 (YPFCLATVDHLPEGLSVTDYERVQRLVSQFLLNKEER),"A. naeslundii, F. nucleatum, P. gingivalis,; also recorded: S. epidermidis, S. gordonii,; also recorded: S. mitis, S. mutans, S. oralis,; also recorded: S. salivarious, S. sanguinis"
3,1T-177 (GTNVPTQILGYSREERFDYEPAPEQR),"P. gingivalis, S. gordonii, S. mitis,; also recorded: S. mutans, S. oralis, S. salivarious,; also recorded: S. sanguinis"
4,1T-12 (FGNIFKGLKDVIETIVKWTAAK),"C. xerosis, C. striatum, S. epidermidis,; also recorded: S. mutans"
5,1T-216 (FFLNVIAIRIPHF),S. sanguinis
6,1T-26 (LTILPTTFFAIIVPILAVAFIAYSGFKIKGIVEHKDQW),"S. mutans, S. aureus, S. epidermidis,; also recorded: C. jeikeium, C. xerosis,; also recorded: C. striatum, P. aeruginosa"
7,1T-134 (SRLVREIKKKCRKS),"A. naeslundii, F. nucleatum, P. gingivalis,; also recorded: S. epidermidis, S. gordonii,; also recorded: S. mitis, S. mutans, S. oralis,; also recorded: S. salivarious, S. sanguinis"
8,1T-118 (TASPPAPSDQGLRTAFPATLLIALAALARISR),"A. naeslundii, F. nucleatum, P. gingivalis,; also recorded: S. epidermidis, S. gordonii,; also recorded: S. mitis, S. mutans, S. oralis,; also recorded: S. salivarious, S. sanguinis"
9,1T-84 (FRKKRYGLSILLWLNAFTNLVNSIHAFYMTLF),S. pneumoniae
10,1T-175 (GEPGSHSGDL),"A. naeslundii, F. nucleatum, P. gingivalis,; also recorded: S. epidermidis, S. gordonii,; also recorded: S. mitis, S. mutans, S. oralis,; also recorded: S. salivarious, S. sanguinis"
11,1T-54 (RWVSCNPSWRIQ),"S. epidermidis, C. xerosis, C. striatum,; also recorded: P. aeruginosa"
12,1T-42 (TVLDWLSLALATGLFVYLLVALLRADRA),"S. aureus, S. epidermidis, C. xerosis,; also recorded: C. striatum, P. aeruginosa"
13,1T-10 (SPAGLPGDGDEA),M. xanthus
14,1T-170 (AYGKVFSMDIMLSENDKLIVLRISHHSAWH),P. gingivalis
15,1T-233 (TDQELEHLIVTELESKRLDFTYSKDITEFFDEAFPEYDQNY),"A. naeslundii, P. gingivalis, S. epidermidis,; also recorded: S. gordonii, S. mitis,; also recorded: S. mutans, S. oralis, S. salivarious,; also recorded: S. sanguinis"
16,1T-243 (SENIARFAAAFENEQVVSYARWFRRSWRGSGSSSRF),"A. naeslundii, P. gingivalis, S. epidermidis,; also recorded: S. gordonii, S. mitis,; also recorded: S. mutans, S. oralis, S. salivarious,; also recorded: S. sanguinis"
17,1T-45 (WTKPSFTDLRLGFEVTLYFANR),"S. aureus, S. epidermidis, C. striatum,; also recorded: P. aeruginosa"
18,1T-145 (VEAGKRNISLENIEKISKGLGISISELFKYIEEGEDKIG),"S. mitis, S. mutans, S. oralis"
19,1T-98 (VRSAKAVKALTAAGYTGELVNVSGGMKAWLGQ),"A. naeslundii, F. nucleatum, P. gingivalis,; also recorded: S. epidermidis, S. gordonii,; also recorded: S. mitis, S. mutans, S. oralis,; also recorded: S. salivarious, S. sanguinis"
20,1T-93 (AMRSVNQA),"S. epidermidis, S. gordonii, S. mitis,; also recorded: S. mutans, S. oralis, S. sanguinis"
21,1T-16 (IDMR),P. aeruginosa
22,1T-199 (RAGRIKKLSQKEAEPFEN),S. sanguinis
23,1T-102 (WKRLWPARILAGHSRRRMRWMVVWRYFAAT),"A. naeslundii, F. nucleatum, P. gingivalis,; also recorded: S. epidermidis, S. gordonii,; also recorded: S. mitis, S. mutans, S. oralis,; also recorded: S. salivarious, S. sanguinis"
24,1T-237 (EDPVPNHFTLRRNKKEKPSKS),S. sanguinis
25,1T-136 (ELLTQIRLALLYSVNEW),"A. naeslundii, F. nucleatum, P. gingivalis,; also recorded: S. epidermidis, S. gordonii,; also recorded: S. mitis, S. mutans, S. oralis,; also recorded: S. salivarious, S. sanguinis"
26,1T-188 (HRKDVYKK),S. sanguinis
27,1T-156 (GRFQISIRGEEKSKVKVQGKGTFTDRNTT),"A. naeslundii, F. nucleatum, P. gingivalis,; also recorded: T. denticola, S. gordonii,; also recorded: S. mitis, S. mutans, S. oralis,; also recorded: S. salivarious, S. sanguinis"
28,1T-81 (AIATGLDIVDGKFDGYLWA),S. pneumoniae
29,1T-75 (GVARGLQLGIKTRTQWGAATGAA),S. pneumoniae
30,1T-152 (YVSADESAYNHIVTDDIPLADRRIEAVQQ),"A. naeslundii, F. nucleatum, P. gingivalis,; also recorded: S. epidermidis, S. gordonii,; also recorded: S. mitis, S. mutans, S. oralis,; also recorded: S. salivarious, S. sanguinis"
